The format of data set [1] is physicochemical. The procedure: The complex was studied at two concentrations in double distilled deionized water: […]. The pH was adjusted by adding either 1N HCl or 1N Na2 CO3. The stability of the complex was determined using ultraviolet spectroscopy over the region 200-450 nm at 25° C. […] An isobesic point occurs over much of the pH range at about 290 nm. In the very dilute solutions (2.5×10^-6 M), the neutral 3:1 complex appears to be stable from about pH 4.5 to 9.5. For the less dilute solutions (1.0×10^-2 M), the determination was more difficult due to the very high absorbance.

The nature of data set [2]: Solubility in distilled deionized water. From the text:
Under some conditions, water may also be incorporated into the structure.

A short description of data set [3]: Oral bioavailability study in rabbits (serum gallium by graphite furnace atomic absorption). It is filed as in vivo, New Zealand white rabbits. To be noted: oral gavage; for Mean gallium content of rabbit serum: 4 ml per kg, 10 mg elemental gallium per 4 ml, fasted 18 hours, 3 animals. The procedure:
A test of the oral bioavailability of the 3:1 ethyl maltol:gallium complex in rabbits was conducted. In this test, the complex was given to rabbits and compared to a solution of gallium nitrate. Six female New Zealand white rabbits weighing between 2.68 and 2.91 kg were used, and were not fed for 18 hours before starting the experiment. A suspension of the 3:1 gallium ethyl maltol complex in double distilled water was prepared with a concentration of 10 mg elemental gallium per 4 ml of suspension. […] A small amount of solid sodium carbonate was added to the latter solution to bring the pH up to about 6. Each of the two solutions was given to three rabbits by oral gavage (through a tube inserted through the mouth to the stomach) in the amount of 4 ml per kg of body weight. The stomach tubes were flushed by three ml of water following administration of the solutions.
Six ml of blood was taken from each, rabbit at 1 hour, 2 hours, 4 hours, 8 hours, and 24 hours following administration of the solutions, and the serum separated and frozen. Control samples of blood were taken 24 hours earlier. The frozen serum samples were then sent to an independent testing laboratory for determination of the gallium contents by graphite furnace atomic absorption analysis. The testing laboratory received numbered serum samples, and never had any knowledge of the experimental conditions used to produce the samples. Due to uncertainties in the analytical procedures for gallium in serum, the relative proportions of gallium in the serum samples are considered more significant than the actual reported concentrations.

The test system of a further data set is rabbits. To be noted: rabbit, in vivo; cited from earlier work.

For `Cc1occc(=O)c1[O-].Cc1occc(=O)c1[O-].Cc1occc(=O)c1[O-].[Ga+3]` [Gallium Maltol], the “pH stability region of the neutral 3:1 complex (in words)” value in data set [1] is given as “very similar to that of the highly dilute solution, possibly slightly wider”. Also, in data set [2] (water), the Solubility result is “about 24 millimolar”.
Take `O=[N+]([O-])[O-].O=[N+]([O-])[O-].O=[N+]([O-])[O-].[Ga+3]` [gallium nitrate, reference compound]: the “Mean gallium content of rabbit serum” value stood at 51 ng/mL in data set [3] (1 hour); 99 ng/mL in data set [3] (2 hours); 118 ng/mL in data set [3] (4 hours); 103 ng/mL in data set [3] (8 hours); 64 ng/mL in data set [3] (24 hours).
For `CCc1occc(=O)c1[O][Ga]([O]c1c(CC)occc1=O)[O]c1c(CC)occc1=O` [Gallium Ethyl Maltol, 3:1 complex of ethyl maltol and gallium], the “Mean gallium content of rabbit serum” value in data set [3] (1 hour) came to 90 ng/mL; in data set [3] (2 hours), 274 ng/mL; in data set [3] (4 hours), 260 ng/mL; in data set [3] (8 hours) it was 212 ng/mL; in data set [3] (24 hours) it was 84 ng/mL. For the same compound, the “Oral absorption compared with gallium nitrate” value in data set [3] (rabbits, equal volume and gallium concentration, stomach acid not counteracted) is recorded as “absorbed in significantly higher amounts than the gallium nitrate suspension”. Further, the Solubility entry in data set [2] (distilled deionized water, 23° C.) is recorded as “about 5 millimolar”.
With `Cc1occc(=O)c1[O][Al]([O]c1c(C)occc1=O)[O]c1c(C)occc1=O` [aluminum maltol complex], the Neurotoxicity result in the data set on rabbits was “highly neurotoxic”.
